# Source: US20050271643A1, “Bacterial strains, compositions including same and probiotic use thereof” (priority 2003, published 2005)
# Read-outs that look alike come from different tables or passages of the source.
# Legend:
# [1] = tested on: B. subtilis HE; assay: Antibiogram by disc diffusion method; assay type: cell-based, Bacillus subtilis; conditions: for Zone of inhibition: 6 mm antibiotic discs, Mueller-Hinton plates, 18 hours at 37° C., strain B. subtilis HE
# [2] = tested on: B. licheniformis PA; assay: Antibiogram by disc diffusion method; assay type: cell-based, Bacillus licheniformis
# [3] = 6 mm antibiotic discs, Mueller-Hinton plates, 18 hours at 37° C., strain B. licheniformis PA
Molecule,Sensitivity or resistance of the strain to the antibiotic (in words) [1],Zone of inhibition [1],"Zone of inhibition [2, 3]",Sensitivity or resistance of the strain to the antibiotic (in words) ([2]; strain B. licheniformis PA),Zone of inhibition [2]
CC1(C)S[C@@H]2[C@H](NC(=O)[C@H](N)c3ccccc3)C(=O)N2[C@H]1C(=O)O [Ampicillin],sensitive,10 ± 0.3 mm,0 mm,resistant,
NC[C@H]1O[C@H](O[C@H]2[C@H](O)[C@@H](O[C@H]3O[C@H](CO)[C@@H](O)[C@H](N)[C@H]3O)[C@H](N)C[C@@H]2N)[C@H](N)C[C@@H]1O [Tobramycin],,24 ± 0.3 mm,20 ± 0.2 mm,,
CC1(C)S[C@@H]2[C@H](NC(=O)[C@H](NC(=O)N3CCNC3=O)c3ccccc3)C(=O)N2[C@H]1C(=O)O [Azlocillin],,18 ± 0.2 mm,16 ± 0.1 mm,,
CO/N=C(\C(=O)N[C@@H]1C(=O)N2C(C(=O)O)=C(COC(N)=O)CS[C@H]12)c1ccco1 [Cefuroxim],resistant,0 mm,0 mm,resistant,
CN[C@H](CC(C)C)C(=O)N[C@H]1C(=O)N[C@@H](CC(N)=O)C(=O)N[C@H]2C(=O)N[C@H]3C(=O)N[C@H](C(=O)N[C@H](C(=O)O)c4cc(O)cc(O)c4-c4cc3ccc4O)[C@H](O)c3ccc(c(Cl)c3)Oc3cc2cc(c3O[C@@H]2O[C@H](CO)[C@@H](O)[C@H](O)[C@H]2O[C@H]2C[C@](C)(N)[C@H](O)[C@H](C)O2)Oc2ccc(cc2Cl)[C@H]1O [Vancomycin],,12 ± 0.1 mm,,,12 ± 0.1 mm
CC1(C)S[C@@H]2[C@H](NC(=O)Cc3ccccc3)C(=O)N2[C@H]1C(=O)O [Benzylpenicillin],sensitive,8 ± 0.1 mm,0 mm,,
CN(C)[C@@H]1C(O)=C(C(N)=O)C(=O)[C@@]2(O)C(O)=C3C(=O)c4c(O)cccc4[C@@](C)(O)[C@H]3C[C@@H]12 [Tetracycline],,24 ± 0.3 mm,,,24 ± 0.2 mm
CC(C)(O/N=C(\C(=O)N[C@@H]1C(=O)N2C(C(=O)[O-])=C(C[n+]3ccccc3)CS[C@H]12)c1csc(N)n1)C(=O)O [Ceftazidim],sensitive,8 ± 0.2 mm,0 mm,,
O=C1CN(/N=C/c2ccc([N+](=O)[O-])o2)C(=O)N1 [Nitrofurantoin],,16 ± 0.2 mm,18 ± 0.1 mm,,
Polymyxin E,sensitive,10 ± 0.1 mm,0 mm,,
NC[C@H]1O[C@H](O[C@H]2[C@H](O)[C@@H](O[C@H]3O[C@H](CO)[C@@H](O)[C@H](N)[C@H]3O)[C@H](N)C[C@@H]2N)[C@H](O)[C@@H](O)[C@@H]1O [Kanamycin],,23 ± 0.1 mm,20 ± 0.1 mm,,
COc1cc(Cc2cnc(N)nc2N)cc(OC)c1OC [Trimethoprim],,24 ± 0.1 mm,24 ± 0.1 mm,,
CC1(C)S[C@@H]2[C@H](NC(=O)[C@H](C(=O)O)c3ccsc3)C(=O)N2[C@H]1C(=O)O [Ticarcillin],sensitive,24 ± 0.4 mm,20 ± 0.1 mm,sensitive,
O=C(N[C@H](CO)[C@H](O)c1ccc([N+](=O)[O-])cc1)C(Cl)Cl [Chloramphenicol],,16 ± 0.2 mm,10 ± 0.1 mm,,
Bactrim,,30 ± 0.2 mm,30 ± 0.1 mm,,
Gentamycin,,24 ± 0.2 mm,20 ± 0.1 mm,,
CC1(C)S[C@@H]2[C@H](NC(=O)[C@H](N)c3ccc(O)cc3)C(=O)N2[C@H]1C(=O)O [Amoxicillin],,18 ± 0.1 mm,16 ± 0.1 mm,,
CCC[C@@H]1C[C@@H](C(=O)N[C@@H]([C@H]2O[C@H](SC)[C@H](O)[C@@H](O)[C@H]2O)[C@H](C)Cl)N(C)C1 [Clindamycin],,10 ± 0.3 mm,0 mm,,

Molecule,Sensitivity or resistance of the strain to the antibiotic (in words) [1],Zone of inhibition [1],"Zone of inhibition [2, 3]",Sensitivity or resistance of the strain to the antibiotic (in words) ([2]; strain B. licheniformis PA),Zone of inhibition [2]
CC(=O)OCC1=C(C(=O)O)N2C(=O)[C@@H](NC(=O)Cc3cccs3)[C@H]2SC1 [Cephalothin],,32 ± 0.5 mm,20 ± 0.4 mm,,
CC1(C)S[C@@H]2[C@H](NC(=O)[C@H](NC(=O)N3CCN(S(C)(=O)=O)C3=O)c3ccccc3)C(=O)N2[C@H]1C(=O)O [Mezlocillin],,20 ± 0.3 mm,17 ± 0.2 mm,,
CO/N=C(\C(=O)N[C@@H]1C(=O)N2C(C(=O)O)=CCS[C@H]12)c1csc(N)n1 [Ceftizoxim],,0 mm,0 mm,,
CCN1CCN(C(=O)N[C@@H](C(=O)N[C@@H]2C(=O)N3[C@@H]2SC(C)(C)[C@@H]3C(=O)O)c2ccccc2)C(=O)C1=O [Piperacillin],,18 ± 0.3 mm,12 ± 0.1 mm,,
Cc1onc(-c2ccccc2)c1C(=O)N[C@@H]1C(=O)N2[C@@H]1SC(C)(C)[C@@H]2C(=O)O [Oxacillin],sensitive,14 ± 0.3 mm,0 mm,,
CC1(C)S[C@@H]2[C@H](NC(=O)C(C(=O)O)c3ccccc3)C(=O)N2[C@H]1C(=O)O (stereo partly shown) [Carbenicillin],sensitive,24 ± 0.4 mm,18 ± 0.3 mm,sensitive,
NCC[C@H](O)C(=O)N[C@@H]1C[C@H](N)[C@@H](O[C@H]2O[C@H](CN)[C@@H](O)[C@H](O)[C@H]2O)[C@H](O)[C@H]1O[C@H]1O[C@H](CO)[C@@H](O)[C@H](N)[C@H]1O [Amikacin],,20 ± 0.2 mm,18 ± 0.1 mm,,
CO/N=C(\C(=O)N[C@@H]1C(=O)N2C(C(=O)O)=C(CSc3nc(=O)c(=O)[nH]n3C)CS[C@H]12)c1csc(N)n1 [Ceftriaxon],,18 ± 0.3 mm,12 ± 0.2 mm,,
CO/N=C(\C(=O)N[C@@H]1C(=O)N2C(C(=O)O)=C(COC(C)=O)CS[C@H]12)c1csc(N)n1 [Cefotaxim],,14 ± 0.2 mm,10 ± 0.2 mm,,
C[C@H]1[C@H](NC(=O)/C(=N\OC(C)(C)C(=O)O)c2csc(N)n2)C(=O)N1S(=O)(=O)O [Aztreonam],resistant,0 mm,0 mm,,
CO[C@@]1(NC(=O)Cc2cccs2)C(=O)N2C(C(=O)O)=C(COC(N)=O)CS[C@@H]21 [Cefoxitin],,16 ± 0.3 mm,12 ± 0.3 mm,,
COc1cccc(OC)c1C(=O)N[C@@H]1C(=O)N2[C@@H]1SC(C)(C)[C@@H]2C(=O)O [Methicillin],sensitive,18 ± 0.1 mm,0 mm,resistant,
CCN1CCN(C(=O)N[C@@H](C(=O)N[C@@H]2C(=O)N3C(C(=O)O)=C(CSc4nnnn4C)CS[C@H]23)c2ccc(O)cc2)C(=O)C1=O [Cefoperazon],,16 ± 0.1 mm,12 ± 0.2 mm,,
Cn1nnnc1SCC1=C(C(=O)O)N2C(=O)[C@@H](NC(=O)[C@H](O)c3ccccc3)[C@H]2SC1 [Cefamandol],,37 ± 0.1 mm,16 ± 0.1 mm,,
C[C@@H](O)[C@H]1C(=O)N2C(C(=O)O)=C(SCCN=CN)C[C@H]12 [Imipenem],,36 ± 0.4 mm,32 ± 0.3 mm,,
CCn1cc(C(=O)O)c(=O)c2cc(F)c(N3CCNCC3)cc21 [Norfloxacin],,24 ± 0.2 mm,24 ± 0.2 mm,,
CO[C@@]1(NC(=O)C(C(=O)O)c2ccc(O)cc2)C(=O)N2C(C(=O)O)=C(CSc3nnnn3C)CO[C@@H]21 (stereo partly shown) [Moxalactam],,12 ± 0.3 mm,12 ± 0.3 mm,,
